Reference: ChEMBL document CHEMBL1687869, “Cycloartane triterpenes isolated from Combretum quadrangulare in a screening program for death-receptor expression enhancing activity” (2011)
Active and inactive are the calls of the source. The calls are words filed in the database; no cut-off is given here.

Tests used:
[1] = molecular target: Tumor necrosis factor receptor superfamily member 10B (Homo sapiens) (UniProt O14763); test: Increase in DR5 promoter activity in SacI gene expressing human DLD1 cells at 17.5 to 70 uM after 24 hrs by luciferase reporter gene assay relative to control; assay type: cell-based; settings: DLD-1
AGS [2] = test: Cytotoxicity against TRAIL-resistant human AGS cells assessed as cell viability at 12.5 uM after 24 hrs by fluorometric microculture assay in presence of 100 ng/ml TRAIL; assay type: functional
AGS [3] = test: Cytotoxicity against TRAIL-resistant human AGS cells assessed as cell viability at 17.5 uM after 24 hrs by fluorometric microculture assay in presence of 100 ng/ml TRAIL; assay type: functional
[4] = molecular target: Tumor necrosis factor receptor superfamily member 10B (Homo sapiens) (UniProt O14763); test: Increase in DR5 promoter activity in SacI gene expressing human DLD1 cells at 17.5 uM after 24 hrs by luciferase reporter gene assay relative to control; assay type: cell-based; settings: DLD-1
AGS [5] = test: Cytotoxicity against TRAIL-resistant human AGS cells assessed as cell viability at 17.5 uM after 24 hrs by fluorometric microculture assay; assay type: functional; settings: read-out: Activity

Chain of Tumor necrosis factor receptor superfamily member 10B (Homo sapiens) (O14763 whole entry): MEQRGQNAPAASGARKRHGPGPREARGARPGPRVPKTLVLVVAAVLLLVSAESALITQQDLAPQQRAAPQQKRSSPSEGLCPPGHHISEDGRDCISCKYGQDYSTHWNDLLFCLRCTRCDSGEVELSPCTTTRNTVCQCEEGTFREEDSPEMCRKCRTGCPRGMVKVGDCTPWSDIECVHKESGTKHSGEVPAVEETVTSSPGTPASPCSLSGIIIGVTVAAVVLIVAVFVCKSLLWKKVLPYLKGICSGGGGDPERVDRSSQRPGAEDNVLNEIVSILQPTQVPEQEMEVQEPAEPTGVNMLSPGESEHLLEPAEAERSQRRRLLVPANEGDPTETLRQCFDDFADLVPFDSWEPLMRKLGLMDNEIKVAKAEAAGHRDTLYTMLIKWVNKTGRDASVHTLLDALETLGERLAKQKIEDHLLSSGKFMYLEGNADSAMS

| Structure (SMILES) | fold change (FC) [1] | other results |
| --- | --- | --- |
| COc1cc(-c2oc3cc(O)cc(O)c3c(=O)c2OC)cc(O)c1OC | 2.2 | – |
| COc1c(O)cc(-c2oc3cc(O)cc(O)c3c(=O)c2OC)cc1O | 2 | – |
| COc1ccc(-c2oc3cc(O)cc(O)c3c(=O)c2OC)cc1O | 6.7 | Activity (AGS [2]): 27%; Activity (AGS [3]): 24% |
| C=C(C)[C@@H](O)CC[C@@H](C)[C@H]1CC[C@@]2(C)[C@@H]3[C@@H](OC(C)=O)C[C@H]4[C@](C)(C(=O)O)[C@@H](O)CC[C@@]45C[C@@]35CC[C@]12C | 1.7 | – |
| O=c1cc(-c2ccc(O)c(O)c2)oc2cc(O)cc(O)c12 [LUTEOLIN] | – | Activity [4]: Active; viability at 17.5 µM (AGS [5]): 51% |
| COC(C)(C)/C=C/C[C@@H](C)[C@H]1CC[C@@]2(C)[C@@H]3[C@@H](O)C[C@H]4C(C)(C)C(=O)CC[C@@]45C[C@@]35CC[C@]12C | 2.5 | – |
